The subject of the assay is PDC KRAS tumor spheroids with HUVEC/MSC, viability. As to the kind of experiment: Anticancer human tumor 349418-098-R-PDC patient-derived lung adenocarcinoma cell line growth inhibition [KRAS2]. Particulars: for viability, T/C: stronger effect = lower value; for pIC50: curve of first compound. An excerpt: Multicellular complex tumor spheroid response to RAS pathway inhibitors in combination with a targeted agents in patient-derived cell lines with oncogenic KRAS variants from multiple cancer types
A high-throughput screen of multi-cell type tumor spheroids was designed to identify active combinations of targeted small molecules and KRAS pathway inhibitors. Complex spheroids include a stromal component modeled by human endothelial cells (HUVEC) and fibroblasts modeled by human mesenchymal stem cells (MSCs). The concentration ranges selected for each drug and investigational agent were based upon clinically achievable concentrations if the clinical Cmax of the agent was known.
Compounds. The drugs and investigational agents: BI-3406 (NSC825286), BAY-293 (NSC824723), batoprotafib (TNO155; NSC825523), sotorasib (AMG 510; NSC818433), MRTX1257 (NSC819558), elimusertib (BAY 1895344; NSC800525), molibresib (GSK525762; NSC774829), temuterkib (LY3214996; NSC803410), venetoclax (NSC766270), alisertib (NSC759677), olaparib (NSC753686), talazoparib (NSC767125), erdafitinib (NSC781556), ipatasertib (NSC767898), cabozantinib (NSC761068), nintedanib (NSC756659), abemaciclib (NSC768073), docetaxel (NSC628503), trametinib (NSC758246), and sapanisertib (NSC764658) were obtained from the National Cancer Institute (NCI) Developmental Therapeutics Program Chemical Repository. The FDA-approved anticancer drug set is available from the Developmental Therapeutics Program. […] The stock solutions were prepared in dimethyl sulfoxide (DMSO, Sigma-Aldrich, St. Louis, MO, cat. D2650) at 800-fold the tested concentration and stored at -70 degrees C prior to their use. All drugs and investigational agents were tested over a range starting from a high concentration at or near the clinical Cmax and decreasing in half-log increments. If the clinical Cmax for an agent had not been determined, the highest concentration tested was 10 microM.
Cell Culture. All cells were maintained in an incubator at 37 degrees C and 5% CO2 with 95% humidity. The PDC lines were cultured according to standard operating procedures established by the NCI PDMR (https://pdmr.cancer.gov/sops/default.htm). Briefly, all PDCs were thawed and cultured in Matrigel-coated flasks prepared with a working solution of 1X Ham's F-12 nutrient mix, without supplementation (Invitrogen, Waltham, MA, cat. 11765054), 100 U/mL penicillin-streptomycin (Invitrogen, cat. 15140122), and 2.5% Matrigel (Corning Inc., Corning, NY, cat. 354248) for the first three passages. All PDCs were cultured in complete DMEM/F-12 media containing advanced DMEM/F-12 (Invitrogen, cat. 12634028), 4.9% defined fetal bovine serum, heat inactivated (HyClone Laboratories Inc., Logan, UT, cat. SH30070.03HI), 389 ng/mL hydrocortisone (Sigma-Aldrich, cat. H4001), 9.7 ng/mL human EGF recombinant protein (Invitrogen, cat. PHG0313), 23.4 microg/mL adenine (Sigma-Aldrich, cat. A2786), 97.3 U/mL penicillin-streptomycin (Invitrogen, cat. 15140122), 1.9 mM L-glutamine (Invitrogen, cat. 25030081), and 9.7 microM Y-27632 dihydrochloride (Tocris Bioscience, Bristol, United Kingdom, cat. 1254). The PDCs were cultured in complete DMEM/F12 media without 9.7 microM Y-27632 dihydrochloride for at least two passages prior to the screen. The established cell line HOP-62 was cultured in RPMI 1640 medium, HEPES (Invitrogen, cat. 22400105) with 10% defined fetal bovine serum (HyClone Laboratories Inc., cat. SH30070.03) and 2 mM L-glutamine (Invitrogen, cat. 25030081). The pooled donor HUVEC were cultured in endothelial cell growth medium 2 (PromoCell, Heidelberg, Germany, cat. C-22011) and the hMSC were cultured in mesenchymal stem cell growth medium 2 (PromoCell, cat. C-28009). For all experiments, HUVEC and hMSC were used at passages </=5, while the malignant cell lines were used at passages </=15. […]

Where [1] appears, read: second compound 0.1 µM, first compound 0.0316 µM.
[2] abbreviates: second compound 0.1 µM, first compound 0.1 µM.
Where [3] appears, read: second compound 0.1 µM, first compound 0.316 µM.
[4] abbreviates: second compound 0.1 µM, first compound 1 µM.
Setting [5] is: second compound 0.1 µM, first compound 3.16 µM.
The mark [6] stands for this setting: second compound 0.1 µM, first compound 10 µM.
Setting [7] is: second compound 0.316 µM, first compound 0.0316 µM.
Where [8] appears, read: second compound 0.316 µM, first compound 0.1 µM.
The mark [9] stands for this setting: second compound 0.316 µM, first compound 0.316 µM.
Where [10] appears, read: second compound 0.316 µM, first compound 1 µM.
[11] abbreviates: second compound 0.316 µM, first compound 3.16 µM.
[12] abbreviates: second compound 0.316 µM, first compound 10 µM.
Where [13] appears, read: second compound 1 µM, first compound 0.0316 µM.
[14] abbreviates: second compound 1 µM, first compound 0.1 µM.
[15] abbreviates: second compound 1 µM, first compound 0.316 µM.
Setting [16] is: second compound 1 µM, first compound 1 µM.
[17] abbreviates: second compound 1 µM, first compound 3.16 µM.
Where [18] appears, read: second compound 1 µM, first compound 10 µM.
The mark [19] stands for this setting: second compound 3.16 µM, first compound 0.0316 µM.
[20] abbreviates: second compound 3.16 µM, first compound 0.1 µM.
[21] abbreviates: second compound 3.16 µM, first compound 0.316 µM.
Where [22] appears, read: second compound 3.16 µM, first compound 1 µM.
Where [23] appears, read: second compound 3.16 µM, first compound 3.16 µM.
The mark [24] stands for this setting: second compound 3.16 µM, first compound 10 µM.
The mark [25] stands for this setting: second compound 10 µM, first compound 0.0316 µM.
Where [26] appears, read: second compound 10 µM, first compound 0.1 µM.
Setting [27] is: second compound 10 µM, first compound 0.316 µM.
Where [28] appears, read: second compound 10 µM, first compound 1 µM.
Where [29] appears, read: second compound 10 µM, first compound 3.16 µM.
[30] abbreviates: second compound 10 µM, first compound 10 µM.

pIC50: −log10 of the molar value.
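Note: spheroids exposed to compounds for seven days before readout.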

With `CC1(C)CCC(CN2CCN(c3ccc(C(=O)NS(=O)(=O)c4ccc(NCC5CCOCC5)c([N+](=O)[O-])c4)c(Oc4cnc5[nH]ccc5c4)c3)CC2)=C(c2ccc(Cl)cc2)C1`, the viability, T/C is, setting by setting: (compound 0.0316 µM) 101% [middle of 5 runs]; (compound 0.1 µM) 97.5% [middle of 5 runs]; (compound 0.316 µM) 91.1% [middle of 5 runs]; (compound 1 µM) 88.3% [middle of 5 runs]; (compound 3.16 µM) 21.2% [middle of 5 runs]; (compound 10 µM) 5.14% [middle of 5 runs]. Also, for the setting “curve of compound”, the concentration for half-maximal inhibition (IC50) is 1.89 µM [middle of 5 runs].
In the case of `C=CC(=O)N1CCN(c2nc(=O)n(-c3c(C)ccnc3C(C)C)c3nc(-c4c(O)cccc4F)c(F)cc23)C(C)C1` (stereo not given), the viability, T/C (compound 10 µM) is 37.2% [middle of 17 runs]. The IC50 runs as follows: (compound alone, run of 07/19/2021) 5.54 µM [middle of 5 runs]; (compound alone, run of 07/26/2021) 6.3 µM [middle of 6 runs].
Regarding `CC(C)NCC(C(=O)N1CCN(c2ncnc3c2C(C)CC3O)CC1)c1ccc(Cl)cc1` (stereo not given) + CNCc1ccccc1-c1csc(C(C)Nc2nc(C)nc3cc(OC)c(OC)cc23)c1, the pIC50 reads like this: (second compound 0.1 µM) 6.59; (second compound 0.316 µM) 6.68; (second compound 1 µM) 6.97; (second compound 3.16 µM) over 7.50; (second compound 10 µM) over 7.50. In addition, the viability, T/C was 95% under setting [1]; 88% under setting [2]; 39.6% under setting [3]; 22.7% under setting [4]; 14.1% under setting [5]; 6.42% under setting [6]. Also, the viability, T/C is, setting by setting: under setting [7], 96.5%; under setting [8], 68.6%; under setting [9], 39.3%; under setting [10], 19.7%; under setting [11], 12.6%; under setting [12], 6.01%. Further, the viability, T/C under setting [13] was 79.1%; the viability, T/C under setting [14] is 52.3%; the viability, T/C under setting [15] is 16.3%; the viability, T/C under setting [16] was 9.95%; the viability, T/C under setting [17] is 1.69%; the viability, T/C under setting [18] was 3.8%. The viability, T/C is 0.09% under setting [19]; 0.11% under setting [20]; 0.03% under setting [21]; 0.03% under setting [22]; 0.27% under setting [23]; 0.09% under setting [24]. Also, the viability, T/C was 0.08% under setting [25]; 0.08% under setting [26]; 0.07% under setting [27]; 0.25% under setting [28]; 0.07% under setting [29]; 0.13% under setting [30].
As to `Cn1nccc1Nc1nccc(-c2cc3c(s2)C(C)(C)N(CCN2CCOCC2)C3=O)n1` + CNCc1ccccc1-c1csc(C(C)Nc2nc(C)nc3cc(OC)c(OC)cc23)c1, the pIC50 reads like this: (second compound 0.1 µM) 7.42; (second compound 0.316 µM) over 7.50; (second compound 1 µM) over 7.50; (second compound 3.16 µM) over 7.50; (second compound 10 µM) over 7.50. Also, the viability, T/C was 54.8% under setting [1]; 25.9% under setting [2]; 12.2% under setting [3]; 8.63% under setting [4]; 5.95% under setting [5]; 4.72% under setting [6]. In addition, the viability, T/C is 48.3% under setting [7]; 21.5% under setting [8]; 10.3% under setting [9]; 6.91% under setting [10]; 6.22% under setting [11]; 3.95% under setting [12]. Further, the viability, T/C runs as follows: under setting [13], 28.4%; under setting [14], 8.49%; under setting [15], 3.82%; under setting [16], 2.34%; under setting [17], 1.92%; under setting [18], 1.22%. Besides, the viability, T/C reads like this: under setting [19], 0.04%; under setting [20], 0.3%; under setting [21], 0.06%; under setting [22], 0.07%; under setting [23], 0.05%; under setting [24], 0.1%. For the same compound, the viability, T/C by setting is: under setting [25], 0.19%; under setting [26], 0.25%; under setting [27], 0.07%; under setting [28], 0.08%; under setting [29], 0.23%; under setting [30], 0.13%.

As usually defined, the viability, T/C is the result in the treated group divided by that in the control group, in per cent. One may read the IC50 as the concentration needed to halve the response being measured. Usually pIC50 stands for the negative decadic logarithm of the IC50, by convention in mol/L.

Source of the values: PubChem BioAssay AID1963866 (Molecular Pharmacology Branch, DTP, NCI, 2024).
